Reference: patent US20200187502A1, “MICROBIOCIDAL OXADIAZOLE DERIVATIVES” (SYNGENTA PARTICIPATIONS AG, priority 2017, published 2020)

What was measured:
[1] = test system: Puccinia recondita f. Sp. Tritici; experiment: Fungicidal activity, wheat leaf disc preventative (brown rust); type: in vivo; conditions: foliar, 200 ppm in the applied formulation, wheat leaf segments cv. Kanzler, compared to untreated control, 7 to 9 days after application, read-out: disease control
Method in brief: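 Wheat cv. Kanzler leaf segments on agar were sprayed with formulated compound in water, then inoculated with spores 1 day later. Incubated at 19° C, 75% rh, 12 h light/12 h dark; percent disease control versus untreated scored 7 to 9 days after application.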

[2] = test system: Puccinia recondita f. Sp. Tritici; experiment: Fungicidal activity, wheat leaf disc curative (brown rust); type: in vivo; conditions: foliar, 200 ppm in the applied formulation, wheat leaf segments cv. Kanzler, curative (applied 1 day after inoculation), compared to untreated control, 6 to 8 days after application, read-out: disease control
Procedure: Leaf disks or leaf segments of various plant species are cut from plants grown in a greenhouse. The cut leaf disks or segments are placed in multiwell plates (24-well format) onto water agar. The leaf disks are sprayed with a test solution before (preventative) or after (curative) inoculation. Compounds to be tested are prepared as DMSO solutions (max. 10 mg/ml) which are diluted to the appropriate concentration with 0.025% Tween20 just before spraying. The inoculated leaf disks or segments are incubated under defined conditions (temperature, relative humidity, light, etc.) according to the respective test system. A single evaluation of disease level is carried out 3 to 14 days after inoculation, depending on the pathosystem. Percent disease control relative to the untreated check leaf disks or segments is then calculated.
Wheat leaf segments cv. Kanzler are placed on agar in multiwell plates (24-well format). The leaf segments are then inoculated with a spore suspension of the fungus. Plates were stored in darkness at 19° C. and 75% relative humidity. The formulated test compound diluted in water was applied 1 day after inoculation. The leaf segments were incubated at 19° C. and 75% relative humidity under a light regime of 12 hours light/12 hours darkness in a climate cabinet and the activity of a compound was assessed as percent disease control compared to untreated when an appropriate level of disease damage appears in untreated check leaf segments (6 to 8 days after application).
The following compounds at 200 ppm in the applied formulation give at least 80% disease control in this test when compared to untreated control leaf disks under the same conditions, which show extensive disease development.

[3] = test system: Glomerella lacenarium (Colletotrichum lacenarium); experiment: Fungicidal activity, liquid culture, cucumber preventative (anthracnose); type: cell-based; conditions: 20 ppm in the applied formulation, liquid culture in PDB, inhibition of growth measured photometrically 3 to 4 days after application, compared to untreated control, read-out: disease control
Method in brief: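 Cryostored conidia mixed into potato dextrose broth and added to DMSO compound solution in microtiter plates. Incubated at 24 °C. Growth inhibition read photometrically 3–4 days after application as percent activity versus untreated check.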

COC(C)C(=O)N(Cc1ccc(-c2noc(C(F)(F)F)n2)s1)C1CC1 (stereo not drawn) [Compound 4.14, N-cyclopropyl-2-methoxy-N-[[5-[5-(trifluoromethyl)-1,2,4-oxadiazol-3-yl]-2-thienyl]methyl]propanamide]
≥ 80%: pest or weed control at 200 ppm [1] | pest or weed control at 200 ppm [2] | inhibition of growth at 20 ppm [3]

CCCN(CC1CC1)C(=O)N(C)Cc1ccc(-c2noc(C(F)(F)F)n2)s1 [Compound 5.57, 1-(cyclopropylmethyl)-3-methyl-1-propyl-3-[[5-(5-(trifluoromethyl)-1,2,4-oxadiazol-3-yl]-2-thienyl]methyl]urea]
≥ 80%: pest or weed control at 200 ppm [1] | pest or weed control at 200 ppm [2] | inhibition of growth at 20 ppm [3]

COCC(=O)N(Cc1ccc(-c2noc(C(F)(F)F)n2)s1)OCC(F)F [Compound 4.62, N-(2,2-difluoroethoxy)-2-methoxy-N-[[5-[5-(trifluoromethyl)-1,2,4-oxadiazol-3-yl]-2-thienyl]methyl]acetamide]
≥ 80%: pest or weed control at 200 ppm [1] | pest or weed control at 200 ppm [2] | inhibition of growth at 20 ppm [3]

CC(=O)C(=O)N(C)Cc1ccc(-c2noc(C(F)(F)F)n2)s1 [Compound 6.8, N-methyl-2-oxo-N-[[5-[5-(trifluoromethyl)-1,2,4-oxadiazol-3-yl]-2-thienyl]methyl]propanamide]
≥ 80%: pest or weed control at 200 ppm [1] | pest or weed control at 200 ppm [2] | inhibition of growth at 20 ppm [3]

CCN(Cc1ccc(-c2noc(C(F)(F)F)n2)s1)C(=O)N(CCOC)CCOC [Compound 4.74, 1-ethyl-3,3-bis(2-methoxyethyl)-1-[[5-[5-(trifluoromethyl)-1,2,4-oxadiazol-3-yl]-2-thienyl]methyl]urea]
≥ 80%: pest or weed control at 200 ppm [1] | pest or weed control at 200 ppm [2] | inhibition of growth at 20 ppm [3]

CCN(Cc1ccc(-c2noc(C(F)(F)F)n2)s1)C(=O)C(=O)Cc1ccccc1 [Compound 6.43, N-ethyl-2-oxo-3-phenyl-N-[[5-[5-(trifluoromethyl)-1,2,4-oxadiazol-3-yl]-2-thienyl]methyl]propanamide]
≥ 80%: pest or weed control at 200 ppm [1] | pest or weed control at 200 ppm [2] | inhibition of growth at 20 ppm [3]

CC(C)N(Cc1ccc(-c2noc(C(F)(F)F)n2)s1)C(=O)NC1CC1 [Compound 5.59, 3-cyclopropyl-1-isopropyl-1-[[5-[5-(trifluoromethyl)-1,2,4-oxadiazol-3-yl]-2-thienyl]methyl]urea]
≥ 80%: pest or weed control at 200 ppm [1] | pest or weed control at 200 ppm [2] | inhibition of growth at 20 ppm [3]

CNS(=O)(=O)N(Cc1ccc(-c2noc(C(F)(F)F)n2)s1)OC [Compound 1.32, 3-[5-[[methoxy(methylsulfamoyl)amino]methyl]-2-thienyl]-5-(trifluoromethyl)-1,2,4-oxadiazole]
≥ 80%: pest or weed control at 200 ppm [1] | pest or weed control at 200 ppm [2] | inhibition of growth at 20 ppm [3]

CC(=O)C(=O)N(Cc1ccc(-c2noc(C(F)(F)F)n2)s1)C1CC1 [Compound 6.11, N-cyclopropyl-2-oxo-N-[[5-[5-(trifluoromethyl)-1,2,4-oxadiazol-3-yl]-2-thienyl]methyl]propanamide]
≥ 80%: pest or weed control at 200 ppm [1] | pest or weed control at 200 ppm [2] | inhibition of growth at 20 ppm [3]

CCCC(=O)N(Cc1ccc(-c2noc(C(F)(F)F)n2)s1)C(C)C [Compound 4.44, N-isopropyl-N-[[5-[5-(trifluoromethyl)-1,2,4-oxadiazol-3-yl]-2-thienyl]methyl]butanamide]
≥ 80%: pest or weed control at 200 ppm [1] | pest or weed control at 200 ppm [2] | inhibition of growth at 20 ppm [3]

CCN(Cc1ccc(-c2noc(C(F)(F)F)n2)s1)C(=O)CC#N [Compound 4.29, 2-cyano-N-ethyl-N-[[5-[5-(trifluoromethyl)-1,2,4-oxadiazol-3-yl]-2-thienyl]methyl]acetamide]
≥ 80%: pest or weed control at 200 ppm [1] | pest or weed control at 200 ppm [2] | inhibition of growth at 20 ppm [3]

CC(=O)N(C)Cc1ccc(-c2noc(C(F)(F)F)n2)s1 [Compound 4.41, N-methyl-N-[[5-[5-(trifluoromethyl)-1,2,4-oxadiazol-3-yl]-2-thienyl]methyl]acetamide]
≥ 80%: pest or weed control at 200 ppm [1] | pest or weed control at 200 ppm [2] | inhibition of growth at 20 ppm [3]

CCN(Cc1ccc(-c2noc(C(F)(F)F)n2)s1)C(=O)C1CCC1 [Compound 5.11, N-ethyl-N-[[5-[5-(trifluoromethyl)-1,2,4-oxadiazol-3-yl]-2-thienyl]methyl]cyclobutanecarboxamide]
≥ 80%: pest or weed control at 200 ppm [1] | pest or weed control at 200 ppm [2] | inhibition of growth at 20 ppm [3]

CC(=O)NCC(=O)N(Cc1ccc(-c2noc(C(F)(F)F)n2)s1)C1CC1 [Compound 4.53, 2-acetamido-N-cyclopropyl-N-[[5-[5-(trifluoromethyl)-1,2,4-oxadiazol-3-yl]-2-thienyl]methyl]acetamide]
≥ 80%: pest or weed control at 200 ppm [1] | pest or weed control at 200 ppm [2] | inhibition of growth at 20 ppm [3]

CCN(Cc1ccc(-c2noc(C(F)(F)F)n2)s1)C(=O)C1CCCO1 (stereo not drawn) [Compound 5.13, N-ethyl-N-[[5-[5-(trifluoromethyl)-1,2,4-oxadiazol-3-yl]-2-thienyl]methyl]tetrahydrofuran-2-carboxamide]
≥ 80%: pest or weed control at 200 ppm [1] | pest or weed control at 200 ppm [2] | inhibition of growth at 20 ppm [3]

CN(Cc1ccc(-c2noc(C(F)(F)F)n2)s1)C(=O)CC#N [Compound 4.39, 2-cyano-N-methyl-N-[[5[5-(trifluoromethyl)-1,2,4-oxadiazol-3-yl]-2-thienyl]methyl]acetamide]
≥ 80%: pest or weed control at 200 ppm [1] | pest or weed control at 200 ppm [2] | inhibition of growth at 20 ppm [3]

CC1(C(=O)N(Cc2ccc(-c3noc(C(F)(F)F)n3)s2)C2CC2)COC1 [Compound 5.41, N-cyclopropyl-3-methyl-N-[[5-[5-(trifluoromethyl)-1,2,4-oxadiazol-3-yl]-2-thienyl]methyl]oxetane-3-carboxamide]
≥ 80%: pest or weed control at 200 ppm [1] | pest or weed control at 200 ppm [2] | inhibition of growth at 20 ppm [3]

CC(C)C(=O)N(Cc1ccc(-c2noc(C(F)(F)F)n2)s1)C(C)C [Compound 4.11, N-isopropyl-2-methyl-N-[[5-[5-(trifluoromethyl)-1,2,4-oxadiazol-3-yl]-2-thienyl]methyl]propanamide]
≥ 80%: pest or weed control at 200 ppm [1] | pest or weed control at 200 ppm [2] | inhibition of growth at 20 ppm [3]

CCONC(=O)N(Cc1ccc(-c2noc(C(F)(F)F)n2)s1)OC [Compound 1.55, 3-ethoxy-1-methoxy-1-[[5-[5-(trifluoromethyl)-1,2,4-oxadiazol-3-yl]-2-thienyl]methyl]urea]
≥ 80%: pest or weed control at 200 ppm [1] | pest or weed control at 200 ppm [2] | inhibition of growth at 20 ppm [3]

CCN(Cc1ccc(-c2noc(C(F)(F)F)n2)s1)C(=O)N1CCCO1 [Compound 5.52, N-ethyl-N-[[5-[5-(trifluoromethyl)-1,2,4-oxadiazol-3-yl]-2-thienyl]methyl]isoxazolidine-2-carboxamide]
≥ 80%: pest or weed control at 200 ppm [1] | pest or weed control at 200 ppm [2] | inhibition of growth at 20 ppm [3]

CC(C)N(Cc1ccc(-c2noc(C(F)(F)F)n2)s1)C(=O)N(C)CC#N [Compound 4.82, 1-(cyanomethyl)-3-isopropyl-1-methyl-3-[[5-[5-(trifluoromethyl)-1,2,4-oxadiazol-3-yl]-2-thienyl]methyl]urea]
≥ 80%: pest or weed control at 200 ppm [1] | pest or weed control at 200 ppm [2] | inhibition of growth at 20 ppm [3]

COCCN(CCOC)C(=O)N(C)Cc1ccc(-c2noc(C(F)(F)F)n2)s1 [Compound 4.80, 1,1-bis(2-methoxyethyl)-3-methyl-3-[[5-[5-(trifluoromethyl)-1,2,4-oxadiazol-3-yl]-2-thienyl]methyl]urea]
≥ 80%: pest or weed control at 200 ppm [1] | pest or weed control at 200 ppm [2] | inhibition of growth at 20 ppm [3]
